Data taken from PubChem BioAssay (NCI).
Values joined by “and” are separate entries in the source; they are usually repeats but may differ in a detail not shown here. Equal values may be shown once.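 A five-concentration, 48-hour dose response in 96-well plates underlies each endpoint, interpolated linearly between surrounding concentrations. The concentration for 50% growth inhibition is given as GI50. The concentration for full growth arrest is given as TGI.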

Experiments:
Test in all cases: growth of human tumour cells (NCI), 48 h
SK-MEL-5 melanoma = tested on: SK-MEL-5 melanoma
UO-31 renal = tested on: UO-31 renal
MDA-MB-435 = tested on: MDA-MB-435
SN12C renal = tested on: SN12C renal
SF-539 CNS = tested on: SF-539 CNS
NCI-H23 lung = tested on: NCI-H23 lung
NCI-H522 lung = tested on: NCI-H522 lung
HS 578T breast = tested on: HS 578T breast
SK-OV-3 ovarian = tested on: SK-OV-3 ovarian
PC-3 prostate = tested on: PC-3 prostate

| Structure (SMILES) | TGI (SK-MEL-5 melanoma) | TGI (UO-31 renal) | TGI (MDA-MB-435) | TGI (SN12C renal) | TGI (SF-539 CNS) | TGI (NCI-H23 lung) | TGI (NCI-H522 lung) | TGI (HS 578T breast) | TGI (SK-OV-3 ovarian) | TGI (PC-3 prostate) | GI50 (SK-MEL-5 melanoma) | GI50 (SN12C renal) | GI50 (NCI-H23 lung) | GI50 (SK-OV-3 ovarian) | GI50 (NCI-H522 lung) | GI50 (UO-31 renal) | GI50 (MDA-MB-435) | GI50 (SF-539 CNS) | GI50 (PC-3 prostate) |
| --- | --- | --- | --- | --- | --- | --- | --- | --- | --- | --- | --- | --- | --- | --- | --- | --- | --- | --- | --- |
| CN1C(=O)C2CCC(=O)N2c2cccnc21 (stereo unspecified) | > 100 µM | > 100 µM | > 100 µM | > 100 µM | > 100 µM | > 100 µM | > 100 µM | > 100 µM |  |  |  |  |  |  |  |  |  |  |  |
| CC(C)CCS(=O)(=O)OCCCCOS(=O)(=O)CCC(C)C |  | > 100 µM |  | > 100 µM | > 100 µM | > 100 µM | > 100 µM |  | > 100 µM |  |  |  |  |  |  |  |  |  |  |
| N#Cc1c(-c2ccccc2)/c(=C\Nc2cccc(C(F)(F)F)c2)c(=O)n2c1nc1ccccc12 | > 100 µM | 22.1 µM | > 100 µM | 50.5 µM | 37.8 µM | > 100 µM | 32.1 µM |  | 91.6 µM | > 100 µM |  |  |  |  |  |  |  |  |  |
| COc1ccc2c(c1)/C(=C/CCN(C)C)c1ccccc1S2 | 31.7 µM | 88.6 µM | > 100 µM | > 100 µM |  | > 100 µM |  | > 100 µM | > 100 µM | > 100 µM |  |  |  |  |  |  |  |  |  |
| O=C(NC(=O)c1ccccc1[N+](=O)[O-])Nc1ccc(Oc2ncc(Br)cn2)c(Cl)c1 |  |  | 0.0312 µM |  | 0.0524 µM |  | 0.0378 µM and 0.198 µM | 0.0934 µM |  |  | 0.04 µM | < 0.027 µM | < 0.0209 µM | < 0.0176 µM |  |  |  |  |  |
| CCC(C(=O)O)c1ccc(OC)cc1 (stereo unspecified) | > 100 µM | > 100 µM |  | > 100 µM | > 100 µM | > 100 µM | > 100 µM |  | > 100 µM |  |  |  |  |  |  |  |  |  |  |
| CCCCC#C[I+]c1ccccc1 | 31.1 µM | 30 µM |  | 28.3 µM | 38.8 µM | 27.3 µM | 15.5 µM |  | 30.4 µM |  |  |  |  |  |  |  |  |  |  |
| Cc1cc(Cc2cc(C)c(N)cc2N)c(N)cc1N | > 100 µM | > 100 µM | > 100 µM | > 100 µM | > 100 µM | > 100 µM | > 100 µM |  | > 100 µM | > 100 µM |  |  |  |  |  |  |  |  |  |
| COc1ccc(COCCOCc2nc(C#N)c(N)o2)cc1 | > 100 µM | > 100 µM | > 100 µM | > 100 µM | > 100 µM | > 100 µM | 75.8 µM |  | > 100 µM | > 100 µM |  |  |  |  |  |  |  |  |  |
| O=C(CCN1CCCCC1)C(=Cc1ccccc1)C(=O)CCN1CCCCC1 | > 100 µM | > 100 µM |  | > 100 µM | > 100 µM | > 100 µM |  |  | > 100 µM |  |  | 3.52 µM |  |  | 15.1 µM |  |  |  |  |
| C=C(C)C(=O)OC1C/C(CO)=C\C(O)C/C(C)=C/C2OC(=O)C(=C)C21 (stereo unspecified) | 44.1 µM | > 100 µM |  | 38.8 µM | 46.3 µM |  | 30.3 µM |  | > 100 µM |  |  |  |  |  |  |  |  |  |  |
| C[C@@H]1CC[C@]2(C(=O)O)CC[C@]3(C)C(=CC[C@@H]4[C@@]5(C)CC[C@H](O)C(C)(C)[C@@H]5CC[C@]43C)[C@@H]2[C@]1(C)O |  | 23.5 µM | 28.8 µM | 30.1 µM | 12 µM | 35.9 µM | 27.9 µM | 16.1 µM | 31.8 µM |  |  |  |  |  |  |  |  |  |  |
| O=C1c2ccccc2-c2c1c1ccccc1c(=O)n2CCNCCNCCNCCn1c2c(c3ccccc3c1=O)C(=O)c1ccccc1-2 |  | 2.64 µM | 4.7 µM |  | 1.58 µM |  |  |  |  | 1.33 µM |  |  |  |  |  | 1.12 µM | 0.993 µM | 0.273 µM | 0.373 µM |
| Cc1n[nH]c(=O)n1/N=C/c1ccc(Cl)cc1 |  | > 100 µM | > 100 µM | > 100 µM | > 100 µM | > 100 µM | > 100 µM |  | > 100 µM |  |  |  |  |  |  |  |  |  |  |
| c1csc(-c2ccc(-c3cccc4nsnc34)s2)c1 | > 100 µM | > 100 µM | > 100 µM | > 100 µM | > 100 µM | > 100 µM | > 100 µM |  | > 100 µM | > 100 µM |  |  |  |  |  |  |  |  |  |
| CN(C)C(=O)O/N=C1/C(c2c(O)[nH]c3ccccc23)=Nc2ccccc21 | > 100 µM | > 100 µM | > 100 µM | > 100 µM | 21.4 µM | > 100 µM | 75.3 µM | 40.2 µM | 48.8 µM |  |  |  |  |  |  |  |  |  |  |
| CC1CCC(n2c3cnccc3c3cnc(Nc4ccc5c(n4)CCN(C(=O)CO)C5)nc32)CC1 (stereo unspecified) | > 100 µM | > 100 µM | > 100 µM |  |  |  | > 100 µM |  | > 100 µM |  | 0.792 µM |  |  | > 100 µM | > 100 µM | 0.263 µM | 0.66 µM |  |  |
| C[C@@H](NC(=O)[C@@H]1C[C@]1(C)COC(=O)c1cc([N+](=O)[O-])cc([N+](=O)[O-])c1)c1cccc2ccccc12 | > 100 µM | > 100 µM | > 100 µM | > 100 µM |  | > 100 µM |  | > 100 µM | > 100 µM | > 100 µM |  |  |  |  |  |  |  |  |  |
| CCOC(=O)c1cn2c(n1)sc1cccc(C)c12 | > 100 µM | > 100 µM |  |  | > 100 µM | > 100 µM | > 100 µM | > 100 µM | > 100 µM | > 100 µM |  |  |  |  |  |  |  |  |  |
| C=C1C(=O)O[C@@H]2C(=O)[C@@H](C)CCC/C(C)=C/CC[C@@]3(C)O[C@@H]3C[C@@H]12 | 56.7 µM | > 100 µM | > 100 µM | > 100 µM | 60.6 µM | > 100 µM | 25.2 µM |  | > 100 µM | > 100 µM |  |  |  |  |  |  |  |  |  |
